This note sets out measurements from ChEMBL document CHEMBL1146526, “Two unusual acetogenins from the roots of Annona salzmanii” (J Nat Prod, 2003).

The test system of one data set is KB. Kind of data set: Cytotoxicity against human KB cells. In kind it is functional.
The nature of data set [1]: Cytotoxicity against african green monkey Vero cells after 24 hrs. In kind it is cell-based. Conditions: chlorocebus sabaeus, read-out: ED50.

Values after ≈ are worked out from the molar mass of the structure shown.

Consider `CCCCCCCCCC[C@@H](O)[C@@H](O)CC[C@H](O)[C@@H]1CC[C@@H]([C@@H](O)CCCCCCCCCCC(O)CC2=CC(C)(O)OC2=O)O1` (stereo not given in full) [PARISIN], for which the ED50 with KB is 1 ×10⁻⁴ ug/ml.
For the compound `CC[C@]1(O)C[C@@H]2CN(CCc3c([nH]c4ccccc34)[C@@](C(=O)OC)(c3cc4c(cc3OC)N(C)[C@H]3[C@@](O)(C(=O)OC)[C@H](OC(C)=O)[C@]5(CC)C=CCN6CC[C@]43[C@@H]65)C2)C1` [VINBLASTINE], the ED50 in the data set with KB is recorded as 0.1 ×10⁻⁴ ug/ml. The CC50 at 24 h in data set [1] was over 0.1 µg/mL.
As to `CCCCC[C@H](O)[C@@H](O)CCC[C@@H](O)[C@@H]1CC[C@@H](C2CC(O)[C@@H]([C@@H](O)CCCCCCCCCCCCC3=CC(C)OC3=O)O2)O1` (stereo not given in full) [SALZMANOLIN], the EC50 in the data set on KB (Homo sapiens, KB, read-out: ED50 (the source's name)) turned out to be 0.001 µg/mL (≈ 0.00153 µM). Moreover, the CC50 at 24 h in data set [1] amounted to 0.01 µg/mL (≈ 0.0153 µM).
